From patent publication US6124308A, “Optically active phenyl pyrimidine derivatives as analgesic agent” (priority 1995, dated 2000)
Structures can show the parent of a compound that is named as a salt. Where two headings read alike, the source gives them in different places.

What was measured:
[1] = Solubility of salts in water and pH (drug addition method); format: physicochemical; settings: water, room temperature
Protocol: The solubility was determined by means of the drug addition method. At room temperature the drug was added to 0.25 ml deionised water. The sample was diluted to 2 ml for pH determination. A single determination was carried out.

[2] = Melting profile / stability of salts (Mettler hotstage and DSC); format: physicochemical; settings: for Hotstage/DSC results indicates (racemisation on heating) / temperature of racemisation indicated by hotstage/DSC: 10° C./min
Protocol: Events on heating were monitored visually using a Mettler hotstage and a microscope. A DSC scan was then used to confirm the observed events and identify the type of event. The DSC experiments were performed using the Perkin Elmer DSC-7 system with a TAC7/DX recorder. In order to capture as many events as possible a scan irate of 10° C./min and 1-2 mg sample size was used. DSC sweeps between 40° C. and 400° C. or from and to 50° C. outside any event observed on the hot stage were carried out on one or two samples. The samples and reference (air) were placed in 50 μl aluminium pans with holes.

[3] = system: maximal electroshock seizure; assay: Maximal electroshock test, rats, i.v., stronger current (200 mA); format: in vivo; settings: Rattus norvegicus, iv, 1 h
From the text: A stronger current (200 mA) was used compared with that (20 mA) used in the other procedures.

[4] = system: hind-limb extension (maximal electroshock seizure); assay: Maximal electroshock test, rats, i.p., duration of action; format: in vivo, rat; settings: for ED50 (95% limits): i.p., rats
[5] = system: whole-cell sodium currents in cultured rat hippocampal neurones; assay: Whole-cell sodium currents in cultured embryonic rat hippocampal neurones, patch-clamp; format: cell-based
From the text: (b) Cultured embryonic rat hippocampal neurones
Sodium currents were elicited by the application of 20 msec dipolarisng pulses, thereby lowering membrane potential to -10 mV from a holding potential of -60 mV.

rat liver DHFR = target: T1, rat liver DHFR (Rattus norvegicus, UniProt Q920D2); assay: Activity against dihydrofolate reductase (DHFR), spectrophotometric assay; format: biochemical; settings: at 100 μM
T1 construct: rat liver DHFR; from tissue; host or cells: rat liver
T1 sequence (Q920D2 1-187): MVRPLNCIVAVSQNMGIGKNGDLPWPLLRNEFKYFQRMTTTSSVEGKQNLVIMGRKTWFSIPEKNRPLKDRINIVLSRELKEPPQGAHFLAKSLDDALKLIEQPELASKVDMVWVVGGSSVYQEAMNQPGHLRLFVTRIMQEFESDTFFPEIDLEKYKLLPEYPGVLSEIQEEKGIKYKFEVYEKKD

[6] = system: striatal dopamine in MPTP injected C57B1/6 mice; assay: MPTP induced neurotoxic model, striatal dopamine levels; format: in vivo, mouse
Protocol: Six-week old male C57B1/6 mice (Japan SLC Co., Hamamatu) were housed ten per case in a temperature-controlled room under a 12-hours light/12-hours dark cycle with free access to food and water.
Mice received i.p. injections of the R(-) enantiomer and the S(+) enantiomer (30 mg/kg) in olive oil starting 12 hours before MPTP injection and every 12 hours for the next 5-injections. Control mice received olive oil only.
Mice receive s.c. injection of MPTP-HCl (40 mg of free base per kg; Research Biochemicals) in saline. Control mice received saline only.
HPLC with electrochemical detection was used to measure striatal levels of dopamine (J.C. Garcia': Journal of Chromatography B. 656 (1994) 77-80).
Seven days after the MPTP injection, mice ([…]) were killed and striata were dissected out, immediately frozen, and stored at -80° C. until analysis. On the day of the assay, tissue samples were sonicated in 10 vol(wt/vol) of 0.1M perchloric acid /1.9 mM sodium hydrogen sulfite containing 1.6μg/ml 3,4-dihydroxybenzylamine hydrobromide(Sigma) as an internal standard. After centrifugation (2,800× g for 10 min at room temperature) and filtration (0.5 μm; Millipore membrane filter), 10 μl of supernatant was injected onto an Inertsil ODS3 column (4.6×250 mm; GL Science, Tokyo). The mobile phase consisted of 88% 115 mM NaH2 PO4 /0.178 mM Na2 EDTA /0.92 mM 1-octanesulfonic acid (pH=2.6) solution and 12% ethanol. F low rate was 1.0 ml/min. Peaks were detected by a Shimazu electrochemical detector LECD-6A(700 mV).

Half-life in male rats = format: in vivo, rat
[7] = system: PGE2-induced acute hyperalgesia; assay: Effects on the development of PGE2-induced acute hyperalgesia (paw pressure); format: in vivo, rat; settings: p.o., 1 h before PGE2 (100 ng), n=5
Protocol: Effects on the development of PGE2 -induced acute hyperalgesia
Reaction times to paw pressure were measured 3 h after PGE2 injection. Ataxia was scored at the same time by observation of the rats placed in an arena.

[8] = system: veratrine-evoked glutamate release from rat brain slices; assay: Inhibition of veratrine-evoked glutamate release; format: cell-based; settings: at 10 μM

| Structure (SMILES) | pH of the solution [1] | Hotstage/DSC results indicates (racemisation on heating) [2] | temperature of racemisation indicated by hotstage/DSC [2] [°C] | stability profile suggested by the tests [2] | other results |
| --- | --- | --- | --- | --- | --- |
| Nc1nc(N)c(-c2cccc(Cl)c2Cl)c(CF)n1 [(L)-Lactate] | 3.43 | Racemisation | 143 | – | solubility of four salts [1]: less than 1 mg/ml |
| Nc1nc(N)c(-c2cccc(Cl)c2Cl)c(CF)n1 [Acetate] | 5.54 | Racemisation | ~200 | – | solubility ([1]; read-out: solubility of four salts): < 1 mg/mL |
| Nc1nc(N)c(-c2cccc(Cl)c2Cl)c(CF)n1 [Benzenesulphonate] | 2.43 | – | – | could provide good stability | – |
| Nc1nc(N)c(-c2cccc(Cl)c2Cl)c(CF)n1 [Benzoate] | 4.17 | unstable | – | – | solubility of four salts [1]: less than 1 mg/ml |
| Nc1nc(N)c(-c2cccc(Cl)c2Cl)c(CF)n1 [Citrate] | 3.99 | – | – | could provide good stability | – |
| Nc1nc(N)c(-c2cccc(Cl)c2Cl)c(CF)n1 [Fumarate] | 3.04 | Racemisation | 127 | – | – |
| Nc1nc(N)c(-c2cccc(Cl)c2Cl)c(CF)n1 [HCl, R(-)-2,4-diamino-5-(2,3-dichlorophenyl)-6-fluoromethyl Pyrimidine Monohydrochloride] | – | – | – | – | pH of the solution ([1]; Monohydrochloride): 3.61; solubility ([1]; solubility of the equivalent base over or around 25 mg/ml): ~25 mg/mL; Hotstage/DSC results indicates (racemisation on heating) ([2]; Monohydrochloride): Racemisation; temperature of racemisation indicated by hotstage/DSC ([2]; Monohydrochloride): 243 °C |
| Nc1nc(N)c(-c2cccc(Cl)c2Cl)c(CF)n1 [Isethionate, R(-)-2,4-diamino-5-(2,3-dichlorophenyl)-6-fluoromethyl Pyrimidine Isethionate] | 1.67 | – | – | – | solubility of the equivalent base over or around 25 mg/ml [1]: around 25 mg/ml; ED50 [3]: 1.5 mg/kg; ED50 ([4]; Rattus norvegicus, ip, 2 h, read-out: ED50 at 2 hrs (isethionate salt versus base), i.p., 2 hrs, calculated as the base, p<0.05): 1.8 mg/kg |
| Nc1nc(N)c(-c2cccc(Cl)c2Cl)c(CF)n1 [Malonate] | 3.2 | – | – | could provide good stability | – |
| Nc1nc(N)c(-c2cccc(Cl)c2Cl)c(CF)n1 [Methanesulphonate, R(-)-2,4-diamino-5-(2,3-dichlorophenyl)-6-fluoromethyl Pyrimidine Methanesulphonate] | 3.33 | Racemisation | 240 | could provide good stability | solubility of the equivalent base over or around 25 mg/ml [1]: around 25 mg/ml |
| Nc1nc(N)c(-c2cccc(Cl)c2Cl)c(CF)n1 [Naphthalenedisulphonate] | – | – | – | could provide good stability | solubility of four salts [1]: less than 1 mg/ml |
| Nc1nc(N)c(-c2cccc(Cl)c2Cl)c(CF)n1 [Phosphate] | 2.34 | – | – | could provide good stability | solubility of the equivalent base over or around 25 mg/ml [1]: around 25 mg/ml |
| Nc1nc(N)c(-c2cccc(Cl)c2Cl)c(CF)n1 [S(+)enantiomer, S(+)-2,4-diamino-5-(2,3-dichlorophenyl)-6-fluoromethyl pyrimidine, reference compound] | – | – | – | – | IC50 ([5]; 20 msec pulses to -10 mV from holding potential -60 mV, read-out: IC50 (reduction of peak sodium current)): 20 µM; reduction of peak sodium current ([5]; holding potential -60 mV): concentration-dependent reduction of peak sodium current; inhibition of rat liver DHFR (rat liver DHFR): 33%; % protection ([6]; 30 mg/kg i.p. 6 times, MPTP 40 mg/kg s.c.): 20.3%; Dopamine content in the striatum ([6]; 30 mg/kg i.p. 6 times, MPTP 40 mg/kg s.c., day 7): 7.99 ± 1.55 μg/g wet tissue; % mortality ([6]; 30 mg/kg i.p., day -1 to 7): 0%; half-life (t1/2) (Half-life in male rats): 3.1 h; Analgesia ED50 (95% limits) [7]: 50.1 (39.2-70.5) mg/kg; inhibition of veratrine-evoked glutamate release [8]: 0%; ED50 (95% limits) ([4]; 0.5 hours, 30 min): 17.6 (11.6-26.4) mg/kg; ED50 (95% limits) ([4]; 1 hour, 60 min): 19.0 (12.7-28.5) mg/kg; ED50 (95% limits) ([4]; 2 hours, 120 min): 30.7 (20.9-45.3) mg/kg; ED50 (95% limits) ([4]; 4 hours, 240 min): 87.3 (47.7-168) mg/kg |
| Nc1nc(N)c(-c2cccc(Cl)c2Cl)c(CF)n1 [Succinate] | 4.09 | Racemisation | 81 | – | – |
| Nc1nc(N)c(-c2cccc(Cl)c2Cl)c(CF)n1 [Sulphate] | 1.92 | Racemisation | 194 | could provide good stability | solubility of the equivalent base over or around 25 mg/ml [1]: around 25 mg/ml |
| Nc1nc(N)c(-c2cccc(Cl)c2Cl)c(CF)n1 [Tartrate] | 3.48 | – | – | could provide good stability | – |
| Nc1nc(N)c(-c2cccc(Cl)c2Cl)c(CF)n1 [Toluenesulphonate] | – | – | – | could provide good stability | – |
